Measured values as given in article PMC6364417, “Kinase inhibitor library screening identifies synergistic drug combinations effective in sensitive and resistant melanoma cells” (Journal of Experimental & Clinical Cancer Research : CR, 2019).

Key:
Assay in all cases: Kinase inhibitor library screening, PrestoBlue cell viability, 1 or 10 μM, 72 h
[1] = tested on: A375-XP cells (Vemurafenib-resistant); details: A375 XP
Procedure: (§1) After 72 h of treatment, cell viability was assessed using the PrestoBlue Cell Viability Reagent (ThermoFisher Scientific). Measurements were performed with the CLARIOstar Monochromator microplate reader (BMG Labtech).
(§2) Kinase inhibitor library screening. […] Each cell line was treated in its sensitive form (parental), and also as 2 resistant derivatives, which were made resistant to either Vemurafenib (XP) or Dabrafenib (GP). Drugs were added at 2 different concentrations, 1 and 10 μM, for 72 h and cell viability was assessed using the PrestoBlue Cell Viability assay. Results are depicted as % viability compared to untreated cells. Each cell line was analyzed at least in duplicate. […] (XLSX 95 kb)

[2] = tested on: IGR37-XP cells (Vemurafenib-resistant); details: IGR37 XP
Procedure: as §1, §2

[3] = tested on: A375-GP cells (Dabrafenib-resistant); details: A375 GP
Procedure: as §1, §2

IGR37 cells (parental) = details: IGR37 Parental
Procedure: as §1, §2

[4] = tested on: 501Mel-GP cells (Dabrafenib-resistant); details: 501Mel GP
Procedure: as §1, §2

[5] = tested on: 501Mel-XP cells (Vemurafenib-resistant); details: 501Mel XP
Procedure: as §1, §2

501Mel cells (parental) = details: 501Mel Parental
Procedure: as §1, §2

[6] = tested on: IGR37-GP cells (Dabrafenib-resistant); details: IGR37 GP
Procedure: as §1, §2

A375 cells (parental) = details: A375 Parental
Procedure: as §1, §2

Row | Compound | cell viability (kinase inhibitor library screening) ([1]; 1μΜ, 72 h) [%] | cell viability (kinase inhibitor library screening) ([1]; 10μΜ, 72 h) [%] | cell viability (kinase inhibitor library screening) ([2]; 1μΜ, 72 h) [%] | cell viability (kinase inhibitor library screening) ([2]; 10μΜ, 72 h) [%] | cell viability (kinase inhibitor library screening) ([3]; 1μΜ, 72 h) [%] | cell viability (kinase inhibitor library screening) ([3]; 10μΜ, 72 h) [%] | cell viability (kinase inhibitor library screening) (IGR37 cells (parental); 1μΜ, 72 h) [%] | cell viability (kinase inhibitor library screening) (IGR37 cells (parental); 10μΜ, 72 h) [%] | cell viability (kinase inhibitor library screening) ([4]; 1μΜ, 72 h) [%] | cell viability (kinase inhibitor library screening) ([4]; 10μΜ, 72 h) [%] | cell viability (kinase inhibitor library screening) ([5]; 1μΜ, 72 h) [%] | cell viability (kinase inhibitor library screening) ([5]; 10μΜ, 72 h) [%] | cell viability (kinase inhibitor library screening) (501Mel cells (parental); 1μΜ, 72 h) [%] | cell viability (kinase inhibitor library screening) (501Mel cells (parental); 10μΜ, 72 h) [%] | cell viability (kinase inhibitor library screening) ([6]; 1μΜ, 72 h) [%] | cell viability (kinase inhibitor library screening) ([6]; 10μΜ, 72 h) [%] | cell viability (kinase inhibitor library screening) (A375 cells (parental); 10μΜ, 72 h) [%] | cell viability (kinase inhibitor library screening) (A375 cells (parental); 1μΜ, 72 h) [%] | also measured
1 | COc1cc(Nc2ncc3c(n2)-c2ccc(Cl)cc2C(c2c(F)cccc2OC)=NC3)ccc1C(=O)O [MLN8237 (Alisertib)] | 51.0 | 50.5 | 86.2 | 31.0 | 42.7 | 41.7 | 70.3 | 54.5 | 82.8 | 52.7 | 67.2 | 49.0 | 82.2 | 73.9 | 89.7 | 56.0 | 40.1 | 43.3 | 
2 | CCc1cnn2c(NCc3ccc[n+]([O-])c3)cc(N3CCCC[C@H]3CCO)nc12 [Dinaciclib (SCH727965)] | 11.5 | 8.1 | 3.1 | 2.6 | 10.0 | 6.1 | 4.4 | 2.8 | 0.636 | 0.422 | 0.85 | 0.249 | 1.5 | 1.3 | 4.4 | 2.3 | 10.7 | 10.8 | 
3 | N#C/C(=C\c1ccc(O)c(O)c1)C(=O)NCc1ccccc1 [AG-490] |  |  |  |  |  |  |  |  |  |  |  |  |  |  |  |  |  |  | cell viability, A375 XP, 1μΜ ([1]; 1μΜ, 72 h, in %): 99.9; cell viability, A375 XP, 10μΜ ([1]; 10μΜ, 72 h, in %): 91.1; cell viability, IGR37 XP, 10μΜ ([2]; 10μΜ, 72 h): 70.7%; cell viability, IGR37 XP, 1μΜ ([2]; 1μΜ, 72 h, in %): 104.5; cell viability, A375 GP, 10μΜ ([3]; 10μΜ, 72 h, in %): 88.5; cell viability, IGR37 Parental, 1μΜ (IGR37 cells (parental); 1μΜ, 72 h, in %): 105.9; cell viability, 501Mel GP, 1μΜ ([4]; 1μΜ, 72 h, in %): 105.8; cell viability, 501Mel GP, 10μΜ ([4]; 10μΜ, 72 h, in %): 86.5; cell viability, 501Mel XP, 1μΜ ([5]; 1μΜ, 72 h, in %): 93.1; cell viability, 501Mel XP, 10μΜ ([5]; 10μΜ, 72 h, in %): 79.3; cell viability, 501Mel Parental, 1μΜ (501Mel cells (parental); 1μΜ, 72 h, in %): 99.1; cell viability, 501Mel Parental, 10μΜ (501Mel cells (parental); 10μΜ, 72 h, in %): 92.7; cell viability, IGR37 GP, 10μΜ ([6]; 10μΜ, 72 h): 88.3%; cell viability, A375 Parental, 10μΜ (A375 cells (parental); 10μΜ, 72 h, in %): 88.6
4 | Cc1cc(C)c(/C=C2\C(=O)Nc3ccccc32)[nH]1 [Semaxanib (SU5416)] |  |  |  |  |  |  |  |  |  |  |  |  |  |  |  |  |  |  | cell viability (kinase inhibitor library screening) ([1]; 10μΜ, in %): 97.5; cell viability (kinase inhibitor library screening) ([2]; 1μΜ, in %): 100.1; cell viability (kinase inhibitor library screening) ([2]; 10μΜ, in %): 61.3; cell viability (kinase inhibitor library screening) ([3]; 1μΜ, in %): 106.4; cell viability (kinase inhibitor library screening) ([3]; 10μΜ, in %): 85.4; cell viability (kinase inhibitor library screening) (IGR37 cells (parental); 1μΜ, in %): 100.1; cell viability (kinase inhibitor library screening) (IGR37 cells (parental); 10μΜ, in %): 97.0; cell viability (kinase inhibitor library screening) ([4]; 1μΜ, in %): 104.6; cell viability (kinase inhibitor library screening) ([4]; 10μΜ, in %): 82.4; cell viability (kinase inhibitor library screening) ([5]; 1μΜ, in %): 89.0; cell viability (kinase inhibitor library screening) ([5]; 10μΜ, in %): 70.1; cell viability (kinase inhibitor library screening) (501Mel cells (parental); 1μΜ, in %): 100.0; cell viability (kinase inhibitor library screening) (501Mel cells (parental); 10μΜ, in %): 90.0; cell viability (kinase inhibitor library screening) ([6]; 1μΜ, in %): 92.4; cell viability (kinase inhibitor library screening) ([6]; 10μΜ, in %): 88.3; cell viability (kinase inhibitor library screening) (A375 cells (parental); 1μΜ, in %): 104.2; cell viability (kinase inhibitor library screening) (A375 cells (parental); 10μΜ, in %): 98.1
